System: female Balb/cJ mice
Experiment: Mouse model of xenobiotic metabolism (irinotecan-induced diarrhea)
Conditions: irinotecan 50 mg/kg IP once daily for 10 days
Description: On day one and everyday thereafter for 10 days, female Balb/cJ mice (The Jackson Laboratory, Farmington, Conn.) were administered irinotecan (50 mg/kg) (Selleckchem, Houston, Tex.) via intraperitoneal (IP) injection once daily for the length of the experiment. On day one and every day thereafter for 10 days, mice were also administered streptomycin (5 mg/ml) (Sigma-Aldrich, St. Louis, Mo.) ad libidum via their drinking water in order to kill proteobacteria in the mouse GI tract.
On day two, 0.1 ml of engineered bacteria in PBS at a concentration of 10^10 colony forming units per mL were administered to the mice once via oral gavage.
On days 3, 7, 8, 9, and 10, the presence of the bacteria in the mouse GI tract was confirmed by collecting fecal samples from the mice, and analyzing the fecal samples for the presence of engineered bacteria. The fecal samples were homogenized in PBS, and inoculated onto agar plates containing streptomycin (500 μg/ml). These agar plates inhibited the growth of other bacteria, and only allowed the engineered bacteria to grow. Colonies were quantified and tallied to determine the amount of bacteria that were alive in the mouse GI tract.
Diarrhea indicated whether the xenobiotic metabolism of the irinotecan caused GI toxicity.

For CCc1c2c(nc3ccc(OC(=O)N4CCC(N5CCCCC5)CC4)cc13)-c1cc3c(c(=O)n1C2)COC(=O)[C@]3(O)CC [Irinotecan, irinotecan], the “Mice with diarrhea/total mice in test group” value (streptomycin in drinking water, bacteria once via oral gavage on day two, observed days 6 through 10) was 9/10 and the “GI toxicity / diarrhea from irinotecan, in words” value (with or without engineered bacteria) was “Nine of the ten mice that did not receive engineered bacteria experienced GI toxicity”.

Reference: patent publication US20210093679A1, “[…] MICROBES AND USES THEREOF” (priority 2018, published 2021)
